Key:
[1] = tested on: macrophages removed from the second Group mice; assay: Test 2: protein synthesis (35S-met.) and DNA synthesis (3H-Thy.) in macrophages removed from treated mice and cultured in vitro for 24 hours; assay type: in vivo, BALB/C mice; details: macrophages of second group mice (60 days) cultured 24 hours, water-treated mice = 100%; for relative (percentage) values of DNA synthesis: ³H-Thy.; for relative (percentage) values of protein synthesis: ³⁵S-met.
Protocol: 15 BALB/C mice (18-20 g) were divided into two groups of 5 and 10 mice. The first group was administered 1 ml of the aqueous solutions described below every 3 days for 30 days (10 sessions), subcutaneously.
The solutions applied were as follows: a) distilled water, b) sodium thiosulphate (25 g/lit), c) formic acid (0.3 g/lit), d) above described organogermanium compound solution, and e) above described organogermanium compound plus formic acid (0.3 g/lit).
Finally, the macrophages removed from the second Group mice were cultured "in vitro" for 24 hours, protein synthesis (using ³⁵S-met. as indicator) and DNA synthesis (using ³H-Thy.) determinations being made therewith.

[2] = tested on: macrophages obtained from the mice peritoneum; assay: Test 2: Production of macrophages in mice (peritoneal macrophage count); assay type: in vivo, BALB/C mice; details: 1 ml subcutaneously every 3 days; for macrophage counts: after 30 days (10 sessions), first group, distilled water 1.0; for average macrophage counts: at 60 days (20 sessions), second group, distilled water 1.1
[3] = as indicated in Miyao K. et al., DRUGS OF FUTURE 13, no. 5, 1988; cited from earlier work

| Molecule | relative (percentage) values of DNA synthesis [1] [%] | relative (percentage) values of protein synthesis [1] [%] | macrophage counts [2] | average macrophage counts [2] | solubility in water [3] |
| --- | --- | --- | --- | --- | --- |
| O=CO [formic acid] | 140 | 115 | 1.2 millions of microphages per millilitre | 1.2 millions of macrophages per millilitre |  |
| O=C(O)C[CH2][Ge](=[O])[O][Ge](=[O])[CH2]CC(=O)O [Ge-132, carboxyethylgermanium sesquioxide] |  |  |  |  | soluble in water |
| sodium thiosulphate | 102 | 98 | 0.9 millions of microphages per millilitre | 1.0 millions of macrophages per millilitre |  |

Reference: patent publication EP0491103B1, “Compositions for therapeutic use comprising organogermanium derivatives” (Larranaga Mendizabal, Eusebio, priority 1990, dated 1992)
